Test results reported in PubChem BioAssay AID1963974 (Molecular Pharmacology Branch, DTP, NCI, 2024).
pIC50: −log10 of the molar value.

Tested on: 648629-189-R-J1-PDC spheroids with HUVEC/MSC, viability
Experiment: Anticancer human tumor 648629-189-R-J1-PDC patient-derived bladder carcinoma cell line growth inhibition [PI3K]
Settings: for pIC50: curve of first compound; for viability, T/C: stronger effect = lower value; active = viability on the fitted dose curve at most 10% of control; inactive = the rest
Summary of the method: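 We assembled tumor spheroids that included a stromal compartment of HUVEC and MSCs, then exposed them to targeted agents alone and together with PI3K pathway inhibitors. Concentration series descended by half-log from clinically achievable Cmax levels. Viability served as the endpoint.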

[1] = second compound 0.00316 µM, first compound 0.0316 µM
[2] = second compound 0.00316 µM, first compound 0.1 µM
[3] = second compound 0.00316 µM, first compound 0.316 µM
[4] = second compound 0.00316 µM, first compound 1 µM
[5] = second compound 0.00316 µM, first compound 3.16 µM
[6] = second compound 0.00316 µM, first compound 10 µM
[7] = second compound 0.01 µM, first compound 0.0316 µM
[8] = second compound 0.01 µM, first compound 0.1 µM
[9] = second compound 0.01 µM, first compound 0.316 µM
[10] = second compound 0.01 µM, first compound 1 µM
[11] = second compound 0.01 µM, first compound 3.16 µM
[12] = second compound 0.01 µM, first compound 10 µM
[13] = second compound 0.0316 µM, first compound 0.0316 µM
[14] = second compound 0.0316 µM, first compound 0.1 µM
[15] = second compound 0.0316 µM, first compound 0.316 µM
[16] = second compound 0.0316 µM, first compound 1 µM
[17] = second compound 0.0316 µM, first compound 3.16 µM
[18] = second compound 0.0316 µM, first compound 10 µM
[19] = second compound 0.1 µM, first compound 0.0316 µM
[20] = second compound 0.1 µM, first compound 0.1 µM
[21] = second compound 0.1 µM, first compound 0.316 µM
[22] = second compound 0.1 µM, first compound 1 µM
[23] = second compound 0.1 µM, first compound 3.16 µM
[24] = second compound 0.1 µM, first compound 10 µM
[25] = second compound 0.316 µM, first compound 0.0316 µM
[26] = second compound 0.316 µM, first compound 0.1 µM
[27] = second compound 0.316 µM, first compound 0.316 µM
[28] = second compound 0.316 µM, first compound 1 µM
[29] = second compound 0.316 µM, first compound 3.16 µM
[30] = second compound 0.316 µM, first compound 10 µM
[31] = second compound 1 µM, first compound 0.0316 µM
[32] = second compound 1 µM, first compound 0.1 µM
[33] = second compound 1 µM, first compound 0.316 µM
[34] = second compound 1 µM, first compound 1 µM
[35] = second compound 1 µM, first compound 3.16 µM
[36] = second compound 1 µM, first compound 10 µM
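Note: spheroids exposed to agents for seven days before reading.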
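Throughout, for viability, T/C: percent of vehicle control luminescence where 100% = DMSO treated spheroids.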

CC1(C)CCC(Nc2ncc(C(F)(F)F)c(-c3c[nH]c4c(P(C)(C)=O)c(C#N)ccc34)n2)CN1 (centres undefined) + CC(Nc1ccc2c(c1)OCCn1cc(N3C(=O)OCC3C(F)F)nc1-2)C(N)=O
> 7.50: pIC50 (second compound 0.00316 µM) | pIC50 (second compound 0.01 µM) | pIC50 (second compound 0.0316 µM) | pIC50 (second compound 0.1 µM) | pIC50 (second compound 0.316 µM) | pIC50 (second compound 1 µM)
inactive: viability, T/C [1] 27.7% | viability, T/C [2] 27.2% | viability, T/C [3] 26.8% | viability, T/C [4] 35.4% | viability, T/C [5] 38.7% | viability, T/C [6] 2.42% | viability, T/C [7] 25.3% | viability, T/C [8] 25.8% | viability, T/C [9] 26.3% | viability, T/C [10] 31.1% | viability, T/C [11] 38.2% | viability, T/C [12] 3.09% | viability, T/C [13] 26.6% | viability, T/C [14] 23.4% | viability, T/C [15] 26.6% | viability, T/C [16] 28.5% | viability, T/C [17] 37.6% | viability, T/C [18] 3% | viability, T/C [19] 24.1% | viability, T/C [20] 23.4% | viability, T/C [21] 26.1% | viability, T/C [22] 23.4% | viability, T/C [23] 33.1% | viability, T/C [24] 2.67% | viability, T/C [25] 23.4% | viability, T/C [26] 25.8% | viability, T/C [27] 23.8% | viability, T/C [28] 28.9% | viability, T/C [29] 29.8% | viability, T/C [30] 2.95% | viability, T/C [31] 19.8% | viability, T/C [32] 22.6% | viability, T/C [33] 26.1% | viability, T/C [34] 23.1% | viability, T/C [35] 27.2% | viability, T/C [36] 1.52%

CCCS(=O)(=O)Nc1ccc(F)c(C(=O)c2c[nH]c3ncc(-c4ccc(Cl)cc4)cc23)c1F + CC(Nc1ccc2c(c1)OCCn1cc(N3C(=O)OCC3C(F)F)nc1-2)C(N)=O
5.28: pIC50 (second compound 0.00316 µM)
5.35: pIC50 (second compound 0.316 µM)
5.45: pIC50 (second compound 1 µM)
5.26: pIC50 (second compound 0.01 µM)
active: viability, T/C [6] 0.36% | viability, T/C [12] 0.28% | viability, T/C [18] 0.32% | viability, T/C [24] 2.36% | viability, T/C [30] 0.44% | viability, T/C [36] 0.54%
5.32: pIC50 (second compound 0.1 µM)
5.33: pIC50 (second compound 0.0316 µM)
inactive: viability, T/C [1] 108% | viability, T/C [2] 105% | viability, T/C [3] 105% | viability, T/C [4] 106% | viability, T/C [5] 87.5% | viability, T/C [7] 112% | viability, T/C [8] 91% | viability, T/C [9] 109% | viability, T/C [10] 129% | viability, T/C [11] 96.5% | viability, T/C [13] 104% | viability, T/C [14] 111% | viability, T/C [15] 93.3% | viability, T/C [16] 112% | viability, T/C [17] 76.5% | viability, T/C [19] 98.3% | viability, T/C [20] 92.3% | viability, T/C [21] 97.9% | viability, T/C [22] 98.9% | viability, T/C [23] 77.3% | viability, T/C [25] 94.5% | viability, T/C [26] 83.4% | viability, T/C [27] 88.1% | viability, T/C [28] 84.5% | viability, T/C [29] 71.9% | viability, T/C [31] 63.8% | viability, T/C [32] 60.6% | viability, T/C [33] 65.8% | viability, T/C [34] 64.9% | viability, T/C [35] 55.2%
